Consider two compounds from US7632811B2, “Analogs of parathyroid hormone” (Societe de Conseils de Recherches et D'Applications …, priority 1995, dated 2009).

The assay has as its target T1, PTH receptor present on SaOS-2 (human osteosarcoma cells) (Homo sapiens, UniProt Q03431).
T1 construct: host or cells: SaOS-2 human osteosarcoma cells (intact, confluent monolayers)
T1 sequence (Q03431 27-593): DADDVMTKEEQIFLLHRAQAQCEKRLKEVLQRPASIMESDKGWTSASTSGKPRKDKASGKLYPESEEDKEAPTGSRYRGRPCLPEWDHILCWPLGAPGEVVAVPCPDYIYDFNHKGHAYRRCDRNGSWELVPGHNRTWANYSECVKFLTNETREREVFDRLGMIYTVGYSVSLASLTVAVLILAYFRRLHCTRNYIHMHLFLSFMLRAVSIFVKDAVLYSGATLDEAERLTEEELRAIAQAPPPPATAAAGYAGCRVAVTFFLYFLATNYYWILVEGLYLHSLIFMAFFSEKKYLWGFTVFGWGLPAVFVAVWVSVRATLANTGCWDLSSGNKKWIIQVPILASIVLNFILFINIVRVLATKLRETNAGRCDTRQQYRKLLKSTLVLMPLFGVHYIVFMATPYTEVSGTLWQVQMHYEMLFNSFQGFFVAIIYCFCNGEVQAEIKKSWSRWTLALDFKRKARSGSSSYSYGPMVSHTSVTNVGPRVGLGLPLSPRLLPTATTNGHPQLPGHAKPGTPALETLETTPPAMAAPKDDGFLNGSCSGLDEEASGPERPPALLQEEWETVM
The experiment in a line: Binding to PTH receptor on SaOS-2 cells (competition with mono-125I-[Nle8,18,Tyr34(3-125I)]bPTH(1-34)NH2). Conditions: Table I, 2 hrs at room temperature, read-out: Kd (half maximal inhibition of binding of mono-125I-[Nle8,18, Tyr34(3-125I)]bPTH(1-34)NH2). The method, boiled down: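 Confluent SaOS-2 cells in 5% FBS RPMI were incubated 2 h at room temperature with 10×10^4 cpm mono-125I-[Nle8,18,Tyr34(3-125I)]bPTH(1-34)NH2 plus competing peptide at 10^−11 to 10^−4 M. After washing, cell-bound radioactivity was counted; Kd taken as half-maximal inhibition of tracer binding.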

Non-standard residues stand in square brackets, D forms with d. Residues, ends and D or L forms follow the SMILES beside them. Cha = N[C@@H](CC1CCCCC1)C(=O)O; Aib = CC(C)(N)C(=O)O

In the case of `CC[C@H](C)[C@H](NC(=O)[C@H](CCC(=O)O)NC(=O)[C@H](CO)NC(=O)[C@@H](NC(=O)[C@@H](N)CO)C(C)C)C(=O)N[C@@H](CCC(N)=O)C(=O)N[C@@H](CC1CCCCC1)C(=O)N[C@@H](CCSC)C(=O)N[C@@H](Cc1c[nH]cn1)C(=O)N[C@@H](CC(N)=O)C(=O)N[C@@H](CC1CCCCC1)C(=O)NCC(=O)N[C@@H](CCCCN)C(=O)N[C@@H](Cc1c[nH]cn1)C(=O)N[C@@H](CC(C)C)C(=O)NC(C)(C)C(=O)N[C@@H](CO)C(=O)N[C@@H](CCSC)C(=O)N[C@@H](CCC(=O)O)C(=O)N[C@@H](CCCNC(=N)N)C(=O)N[C@H](C(=O)N[C@@H](CCC(=O)O)C(=O)N[C@@H](Cc1c[nH]c2ccccc12)C(=O)N[C@@H](CC(C)C)C(=O)N[C@@H](CCCNC(=N)N)C(=O)N[C@@H](CCCCN)C(=O)N[C@@H](CCCCN)C(=O)N[C@@H](CC(C)C)C(=O)N[C@@H](CCC(N)=O)C(=O)N[C@@H](CC(=O)O)C(=O)N[C@H](C(=O)N[C@@H](Cc1c[nH]cn1)C(=O)N[C@@H](CC(N)=O)C(=O)N[C@@H](Cc1ccccc1)C(N)=O)C(C)C)C(C)C` [[Cha^7,11, Aib^16]hPTH(1-34)NH2] (H-SVSEIQ[Cha]MHN[Cha]GKHL[Aib]SMERVEWLRKKLQDVHNF-NH2), the dissociation constant (Kd) was 4 nM.
In the case of `CC[C@H](C)[C@H](NC(=O)[C@H](CCC(=O)O)NC(=O)[C@H](CO)NC(=O)[C@@H](NC(=O)[C@@H](N)CO)C(C)C)C(=O)N[C@@H](CCC(N)=O)C(=O)N[C@@H](CC(C)C)C(=O)N[C@@H](CCSC)C(=O)N[C@@H](Cc1c[nH]cn1)C(=O)N[C@@H](CC(N)=O)C(=O)N[C@@H](CC(C)C)C(=O)NCC(=O)N[C@@H](CCCCN)C(=O)N[C@@H](Cc1c[nH]cn1)C(=O)N[C@@H](CC(C)C)C(=O)N[C@@H](CC(N)=O)C(=O)N[C@@H](CO)C(=O)N[C@@H](CCSC)C(=O)N[C@@H](CCC(=O)O)C(=O)N[C@@H](CCCNC(=N)N)C(=O)N[C@H](C(=O)N[C@@H](CCC(=O)O)C(=O)N[C@@H](Cc1c[nH]c2ccccc12)C(=O)N[C@@H](CC1CCCCC1)C(=O)N[C@@H](CCCNC(=N)N)C(=O)N[C@@H](CCCCN)C(=O)N[C@@H](CCCCN)C(=O)N[C@@H](CC1CCCCC1)C(=O)N[C@@H](CCC(N)=O)C(=O)N[C@@H](CCCCN)C(=O)N[C@@H](CC1CCCCC1)C(=O)N[C@@H](Cc1c[nH]cn1)C(=O)N[C@@H](CC(N)=O)C(=O)N[C@@H](Cc1ccccc1)C(N)=O)C(C)C` [[Cha^24,28,31, Lys^30]hPTH(1-34)NH2] (H-SVSEIQLMHNLGKHLNSMERVEW[Cha]RKK[Cha]QK[Cha]HNF-NH2) it was 500 nM.

One may read the Kd as a measure of binding affinity in units of concentration.
